Experimental data taken from PubChem BioAssay (NCI).
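Method: 48-hour compound exposure of cells in 96-well plates, five concentrations, linear interpolation of endpoints. TGI: concentration producing complete growth inhibition.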

test system: A498 renal; assay: NCI anticancer screen, dose series, 48 h

| SMILES | TGI |
| --- | --- |
| COc1ccc(N2C(=O)C3ON(C(C(N)=O)c4ccccc4)C(c4cc5ccccc5c5ccccc45)C3C2=O)cc1 (stereo not given) | > 50 µM |
| O=C1N[C@@H](c2c[nH]c3cc(Br)ccc23)C(=O)N[C@H]1c1c[nH]c2cc(Br)ccc12 | > 100 µM |
| COc1ccccc1N1CCN(CCCN2/C(=C(\O)c3ccccc3)C(=O)c3c(C)cc(C)nc3S2(=O)=O)CC1 | > 100 µM |
| CCn1c(SCC(=O)NNC(=S)Nc2ccc(C)cc2)nc2ccccc2c1=O | > 100 µM |
| NC(=S)Nc1ccc(S(=O)(=O)Nc2ccc(S(N)(=O)=O)cc2)cc1 | > 100 µM |
| COc1ccc(C2=Nn3c(nnc(Cc4ccc(Cl)cc4)c3=O)SC2)cc1 | > 100 µM |
| COC1(OC)CC(CO)(CNc2nc(N)nc(Cl)c2/C=N\O)C1 | 98.5 µM |
| Cc1ccc(/C=C2\CCC/C(=C\c3ccc(O)c(CN4CCCCC4)c3)C2=O)cc1 | 13.9 µM |
| COC(=O)CCc1cc(O)c2c(c1)C(C(=O)OC)C(c1ccc(O)c(O)c1)O2 (stereo not given) | > 84.5 µM |
| Cc1ccc2c(c1)C1(C)OC(C=CC1=O)O2 (stereo not given) | 13.4 µM |

test system: SK-MEL-5 melanoma; assay: NCI anticancer screen, dose series, 48 h

| SMILES | TGI |
| --- | --- |
| COc1ccc(N2C(=O)C3ON(C(C(N)=O)c4ccccc4)C(c4cc5ccccc5c5ccccc45)C3C2=O)cc1 (stereo not given) | > 50 µM |
| O=C1N[C@@H](c2c[nH]c3cc(Br)ccc23)C(=O)N[C@H]1c1c[nH]c2cc(Br)ccc12 | > 100 µM |
| COc1ccccc1N1CCN(CCCN2/C(=C(\O)c3ccccc3)C(=O)c3c(C)cc(C)nc3S2(=O)=O)CC1 | > 100 µM |
| CCn1c(SCC(=O)NNC(=S)Nc2ccc(C)cc2)nc2ccccc2c1=O | > 100 µM |
| NC(=S)Nc1ccc(S(=O)(=O)Nc2ccc(S(N)(=O)=O)cc2)cc1 | > 100 µM |
| COc1ccc(C2=Nn3c(nnc(Cc4ccc(Cl)cc4)c3=O)SC2)cc1 | > 100 µM |
| COC1(OC)CC(CO)(CNc2nc(N)nc(Cl)c2/C=N\O)C1 | > 100 µM |
| Cc1ccc(/C=C2\CCC/C(=C\c3ccc(O)c(CN4CCCCC4)c3)C2=O)cc1 | 19.1 µM |
| COC(=O)CCc1cc(O)c2c(c1)C(C(=O)OC)C(c1ccc(O)c(O)c1)O2 (stereo not given) | 20.4 µM |
| Cc1ccc2c(c1)C1(C)OC(C=CC1=O)O2 (stereo not given) | 2.79 µM |

test system: MALME-3M melanoma; assay: NCI anticancer screen, dose series, 48 h

| SMILES | TGI |
| --- | --- |
| COc1ccc(N2C(=O)C3ON(C(C(N)=O)c4ccccc4)C(c4cc5ccccc5c5ccccc45)C3C2=O)cc1 (stereo not given) | > 50 µM |
| O=C1N[C@@H](c2c[nH]c3cc(Br)ccc23)C(=O)N[C@H]1c1c[nH]c2cc(Br)ccc12 | > 100 µM |
| COc1ccccc1N1CCN(CCCN2/C(=C(\O)c3ccccc3)C(=O)c3c(C)cc(C)nc3S2(=O)=O)CC1 | > 100 µM |
| CCn1c(SCC(=O)NNC(=S)Nc2ccc(C)cc2)nc2ccccc2c1=O | > 100 µM |
| NC(=S)Nc1ccc(S(=O)(=O)Nc2ccc(S(N)(=O)=O)cc2)cc1 | > 100 µM |
| COc1ccc(C2=Nn3c(nnc(Cc4ccc(Cl)cc4)c3=O)SC2)cc1 | > 100 µM |
| COC1(OC)CC(CO)(CNc2nc(N)nc(Cl)c2/C=N\O)C1 | > 100 µM |
| Cc1ccc(/C=C2\CCC/C(=C\c3ccc(O)c(CN4CCCCC4)c3)C2=O)cc1 | 43.7 µM |
| COC(=O)CCc1cc(O)c2c(c1)C(C(=O)OC)C(c1ccc(O)c(O)c1)O2 (stereo not given) | > 100 µM |
| Cc1ccc2c(c1)C1(C)OC(C=CC1=O)O2 (stereo not given) | 1.32 µM |

test system: IGROV1 ovarian; assay: NCI anticancer screen, dose series, 48 h

| SMILES | TGI |
| --- | --- |
| COc1ccc(N2C(=O)C3ON(C(C(N)=O)c4ccccc4)C(c4cc5ccccc5c5ccccc45)C3C2=O)cc1 (stereo not given) | > 50 µM |
| O=C1N[C@@H](c2c[nH]c3cc(Br)ccc23)C(=O)N[C@H]1c1c[nH]c2cc(Br)ccc12 | > 100 µM |
| COc1ccccc1N1CCN(CCCN2/C(=C(\O)c3ccccc3)C(=O)c3c(C)cc(C)nc3S2(=O)=O)CC1 | > 100 µM |
| CCn1c(SCC(=O)NNC(=S)Nc2ccc(C)cc2)nc2ccccc2c1=O | > 100 µM |
| NC(=S)Nc1ccc(S(=O)(=O)Nc2ccc(S(N)(=O)=O)cc2)cc1 | > 100 µM |
| COc1ccc(C2=Nn3c(nnc(Cc4ccc(Cl)cc4)c3=O)SC2)cc1 | > 100 µM |
| COC1(OC)CC(CO)(CNc2nc(N)nc(Cl)c2/C=N\O)C1 | > 100 µM |
| Cc1ccc(/C=C2\CCC/C(=C\c3ccc(O)c(CN4CCCCC4)c3)C2=O)cc1 | 26.5 µM |
| COC(=O)CCc1cc(O)c2c(c1)C(C(=O)OC)C(c1ccc(O)c(O)c1)O2 (stereo not given) | > 92.5 µM |
| Cc1ccc2c(c1)C1(C)OC(C=CC1=O)O2 (stereo not given) | 8.88 µM |

test system: HL-60(TB) leukemia; assay: NCI anticancer screen, dose series, 48 h

| SMILES | TGI |
| --- | --- |
| COc1ccc(N2C(=O)C3ON(C(C(N)=O)c4ccccc4)C(c4cc5ccccc5c5ccccc45)C3C2=O)cc1 (stereo not given) | > 50 µM |
| O=C1N[C@@H](c2c[nH]c3cc(Br)ccc23)C(=O)N[C@H]1c1c[nH]c2cc(Br)ccc12 | > 100 µM |
| COc1ccccc1N1CCN(CCCN2/C(=C(\O)c3ccccc3)C(=O)c3c(C)cc(C)nc3S2(=O)=O)CC1 | > 100 µM |
| CCn1c(SCC(=O)NNC(=S)Nc2ccc(C)cc2)nc2ccccc2c1=O | > 100 µM |
| NC(=S)Nc1ccc(S(=O)(=O)Nc2ccc(S(N)(=O)=O)cc2)cc1 | > 100 µM |
| COc1ccc(C2=Nn3c(nnc(Cc4ccc(Cl)cc4)c3=O)SC2)cc1 | > 100 µM |
| COC1(OC)CC(CO)(CNc2nc(N)nc(Cl)c2/C=N\O)C1 | > 100 µM |
| Cc1ccc(/C=C2\CCC/C(=C\c3ccc(O)c(CN4CCCCC4)c3)C2=O)cc1 | > 100 µM |
| COC(=O)CCc1cc(O)c2c(c1)C(C(=O)OC)C(c1ccc(O)c(O)c1)O2 (stereo not given) | > 21.8 µM |
| Cc1ccc2c(c1)C1(C)OC(C=CC1=O)O2 (stereo not given) | 0.998 µM |
